Measurements: article PMC6274539, “Photoactivatable Caged Prodrugs of VEGFR-2 Kinase Inhibitors” (Molecules, 2016)
Entries after “also recorded” stand apart in the source; their conditions may differ. Read-outs that look alike come from different tables or passages of the source.

Assays:
PC-3 cells [1] = assay: cellular growth (proliferation) assay, resazurin; type: cell-based; conditions: for antiproliferative effect after UV irradiation: 365 nm, 1.1 kW/m^2, 48 h; for TGI (total growth inhibition) mark: without UV irradiation
Method: Growth assays on VEGFR-2 dependent PC-3 cells were performed.
PC-3 cells were purchased from CLS Cell Lines Service GmbH (Eppelheim, Germany). The cells were grown in DMEM:Hams F12 (1:1) medium with 5% FCS. PC-3 cells were incubated in a 5% CO2 humidified atmosphere at 37 °C.
The cells were grown in cell flasks until approximately 90% confluence and then seeded to give 13000 cells in 100 μL per well into 96-well CulturePlates™ (Perkin Elmer). In addition to the test plates, one plate was prepared for reference measurement at day zero. All plates were incubated for 24 h at 37 °C in a humidified atmosphere with 5% CO2. Compounds 1, 3, 4, and 5 were dissolved in 100% DMSO (v/v) and added to the test plates. The final DMSO concentration in the assay was 0.5% (v/v). Viability of the cells in the day zero control plates were determined on the same day without adding any compounds. For viability measurement the resazurin assay was used. The shift in the fluorescence signal was measured at the LS55 Fluorescence spectrometer (Perkin Elmer). For the photoactivation experiments the test plates were irradiated at 365 nm for 5 min (LED source: 8× Nichia NCSU033B, Sahlmann Photochemical Solutions, 50%, 1.1 kW/m^2). Test plates were incubated for further 48 h and cell viability was defined as described above. Measured raw data was converted into percent of cell growth by using the high control (0.5% DMSO (v/v) without compound) and the day zero control. For dose-response studies, 11 different concentrations of compounds were tested in duplicates. IC50 values were calculated using the 4-parameter logarithmic fit option of GraphPad Prism 5.

VEGFR-2 = molecular target: T1, VEGFR-2 (Homo sapiens, UniProt P35968); assay: radiometric 33PanQinase VEGFR-2 kinase assay (ProQinase); type: biochemical; conditions: 10 semi-log concentrations, single samples, 1% DMSO
T1 construct: determined using VEGFR-2 protein kinase by a radiometric ^33PanQinase® assay; purchased ProQinase (Freiburg, Germany)
T1 sequence (P35968 20-1356): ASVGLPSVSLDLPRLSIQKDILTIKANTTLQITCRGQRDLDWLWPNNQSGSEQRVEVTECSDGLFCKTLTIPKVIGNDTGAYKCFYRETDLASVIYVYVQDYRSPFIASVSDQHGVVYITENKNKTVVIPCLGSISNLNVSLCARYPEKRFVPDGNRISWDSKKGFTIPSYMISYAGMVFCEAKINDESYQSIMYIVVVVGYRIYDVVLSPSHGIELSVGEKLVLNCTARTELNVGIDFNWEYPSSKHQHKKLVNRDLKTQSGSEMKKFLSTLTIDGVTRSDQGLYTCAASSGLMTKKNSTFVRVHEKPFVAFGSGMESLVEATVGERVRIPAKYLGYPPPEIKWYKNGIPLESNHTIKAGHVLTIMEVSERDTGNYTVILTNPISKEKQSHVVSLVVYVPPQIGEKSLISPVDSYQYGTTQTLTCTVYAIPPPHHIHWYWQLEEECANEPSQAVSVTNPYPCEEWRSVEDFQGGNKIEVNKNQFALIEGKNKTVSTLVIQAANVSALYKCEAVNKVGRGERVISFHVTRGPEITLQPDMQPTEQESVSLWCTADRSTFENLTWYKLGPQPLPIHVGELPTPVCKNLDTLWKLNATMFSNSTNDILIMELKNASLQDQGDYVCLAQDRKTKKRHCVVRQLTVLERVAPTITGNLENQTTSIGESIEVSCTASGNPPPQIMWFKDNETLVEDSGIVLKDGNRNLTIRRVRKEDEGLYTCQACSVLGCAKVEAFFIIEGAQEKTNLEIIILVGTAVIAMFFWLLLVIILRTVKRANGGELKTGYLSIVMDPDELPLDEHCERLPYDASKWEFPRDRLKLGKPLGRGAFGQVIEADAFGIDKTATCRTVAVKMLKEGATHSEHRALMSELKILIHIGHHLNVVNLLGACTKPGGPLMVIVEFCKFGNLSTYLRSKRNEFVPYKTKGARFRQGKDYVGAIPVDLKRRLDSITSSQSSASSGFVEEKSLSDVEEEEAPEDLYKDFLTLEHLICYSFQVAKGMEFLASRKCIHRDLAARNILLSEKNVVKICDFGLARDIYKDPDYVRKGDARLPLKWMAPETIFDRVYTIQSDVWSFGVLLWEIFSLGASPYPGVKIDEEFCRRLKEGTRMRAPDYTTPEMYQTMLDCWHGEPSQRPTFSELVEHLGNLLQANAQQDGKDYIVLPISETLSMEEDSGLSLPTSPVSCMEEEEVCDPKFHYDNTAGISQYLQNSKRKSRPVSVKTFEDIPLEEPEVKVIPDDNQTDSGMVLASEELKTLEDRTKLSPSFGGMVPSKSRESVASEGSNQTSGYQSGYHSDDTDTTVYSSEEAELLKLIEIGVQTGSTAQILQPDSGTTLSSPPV
Method: As predicted by molecular modeling, insertion of the protecting group DMNB should diminish the inhibitory activity both of the maleimide 1 and the carbazole 3. […] The IC50 values towards VEGFR-2 were determined (Table 1).
The VEGFR-2 IC50 profile for 1, 3, 4 and 5 was determined using VEGFR-2 protein kinase by a radiometric ^33PanQinase® assay. […] Prior to testing, the compounds were dissolved to prepare 1 × 10^−2 M stock solutions in 100% DMSO. The final DMSO concentration in the reaction cocktails was 1% in all cases. Analyses were performed by ProQinase (Freiburg, Germany).

[2] = photoactivation (uncaging) at 365 nm in DMSO (HPLC, LC-MS); type: physicochemical; conditions: 1 mM in DMSO, 5.4 W, up to 10 min
From the text: A further prerequisite for an application of caged prodrugs is a rapid and quantitative release of active parent compounds by irradiation. To examine this, we investigated the uncaging of 4 and 5 induced by irradiation at 365 nm with 5.4 W (Figure 5). […] Initially released maleimide 1 is converted to the intermediate 2 by proceeding irradiation, which is in line to the previously described instability of 1, (compare Figure 4a). […] Due to UV stability of 3 no other by-products could be detected.
After 0.25, 0.5, 0.75, 1, 2, 3, 5 and 10 min of irradiation samples were taken. Aliquots were diluted 1:5 with methanol and subsequently analyzed by HPLC. Additional to retention time LC-MS was used to proof identity.

PC-3 cells [3] = assay: cellular uptake by fluorescence microscopy (cell staining); type: cell-based; conditions: live PC-3 cells, 10 µM, 30 min, autofluorescence
Method: Next, we investigated the cellular bioavailability of the caged prodrugs. For this purpose, we used the autofluorescence of the carbazole 3 and its caged derivative 5. The emission spectra of both compounds are shown in the Supplementary Figure S6. The fluorescence microscopy was used to explore the uptake of the compounds into the cells. Live PC-3 cells were stained with 10 µM solutions of 3 or 5, and then fixed with formalin. Subsequently, the cell nuclei were counterstained with 1 µg/mL DAPI.
PC-3 cells were stained with the carbazole 3 and its caged derivative 5. For this purpose, the cells were seeded to give 15,000 cells in 50 µL per well into 96-well half area microplate (Ref.: 675986, Greiner bio-one, Kremsmünster, Austria). The plate was incubated for 48 h at 37 °C in a humidified atmosphere with 5% CO2. Compounds 3 and 5 were dissolved in DMEM:Hams F12 (1:1) medium with 5% FCS and added to the cells to give the endconcentration of 10 µM, respectively. The cells were incubated with the compounds for 30 min at 37 °C. After that, the cells were washed twice with PBS and fixed with 3.3% formalin for 15 min. […] After 30 min incubation at 37 °C, the cells were washed with PBS and the fluorescence images were taken at the ImageXpress® Micro XL (Molecular Devices, Sunnyvale CA, USA). […]

[4] = irradiated at 365 nm, 5 min, 1.1 kW/m^2, cell growth after 48 h, read-out: GI50 after Irradiation
[5] = Homo sapiens, PC-3, light or radiation study, irradiated at 365 nm, 5 min, 1.1 kW/m^2, cell growth after 48 h, read-out: GI50 after Irradiation

Compound: C[C@H](NC(=O)OC(C)(C)C)C(=O)O [Boc-Ala, reference compound]
- antiproliferative effect after UV irradiation (PC-3 cells [1]; 5 min): does not have any effect on cellular growth
- antiproliferative effect without UV irradiation (PC-3 cells [1]; no UV irradiation, 48 h): do not show any; also recorded: did not show any antiproliferative effects

Compound: COc1cc(COC(=O)[C@H](C)NC(=O)OC(C)(C)C)c([N+](=O)[O-])cc1OC [DMNB-Boc-Ala, reference compound]
- antiproliferative effect after UV irradiation (PC-3 cells [1]; 5 min): distinct antiproliferative activity
- GI50 (PC-3 cells [1]; [4]): 50.3 µM
- antiproliferative effect without UV irradiation (PC-3 cells [1]; no UV irradiation, 48 h): do not show any; also recorded: did not show any antiproliferative effects

Compound: COc1cc(CN2C(=O)c3c(c4c5ccccc5[nH]c4c4c(OC)c(OC)c(OC)cc34)C2=O)c([N+](=O)[O-])cc1OC [Compound 5, 2-(4,5-Dimethoxy-2-nitrobenzyl)-5,6,7-trimethoxybenzo[a]pyrrolo[3,4-c]carbazole-1,3(2H,8H)-dione]
- IC50 (VEGFR-2): 44.8 µM
- GI50 (PC-3 cells [1]; Homo sapiens, PC-3, light or radiation study, 48 h, no UV irradiation, cell growth after 48 h, read-out: GI50 without Irradiation): 34.6 µM
- GI50 (PC-3 cells [1]; [5]): 0.22 µM
- GI50 (PC-3 cells [1]; [4]): 0.2 µM
- TGI (total growth inhibition) mark (PC-3 cells [1]; 48 h): not reached even at high concentrations
- photoinduced release of parent compound (uncaging) [2]: rapidly released
- cellular uptake (PC-3 cells [3]): taken up into the cells, but not within the cell nuclei
- melting point: 283 °C

Compound: COc1cc(CN2C(=O)C(c3cc(OC)c(OC)c(OC)c3)=C(c3c[nH]c4ccccc34)C2=O)c([N+](=O)[O-])cc1OC [Compound 4, 1-(4,5-Dimethoxy-2-nitrobenzyl)-3-(1H-indol-3-yl)-4-(3,4,5-trimethoxyphenyl)-1H-pyrrole-2,5-dione]
- IC50 (VEGFR-2): 4.59 µM
- GI50 (PC-3 cells [1]; [5]): 0.1 µM
- concentration at which the cleaved PPG shows toxicity relative to efficacious concentration of the irradiated compound (PC-3 cells [1]; after irradiation, PPG from DMNB-Boc-Ala): approximately 500 fold
- antiproliferative effect without UV irradiation (PC-3 cells [1]; no UV irradiation, 48 h): do not show any; also recorded: very marginal antiproliferative activity
- GI50 without Irradiation (PC-3 cells [1]; no UV irradiation, cell growth after 48 h): not reached
- TGI (total growth inhibition) mark (PC-3 cells [1]; 48 h): not reached even at high concentrations
- photoinduced release of parent compound (uncaging) [2]: cleavage of the DMNB PPG
- melting point: 205 °C
